Results on one molecule are retold here after patent US20230202997A1, “CHROMANOL, QUINONE OR HYDROQUINONE COMPOUNDS FOR TREATMENT OF SEPSIS” (Sulfateq B.V., priority 2020, published 2023).

In one assay the test system is TNFα mRNA expression. In words: Inhibition of LPS-induced TNFα mRNA expression in NRK52E. In kind it is cell-based, Rat. The following applies: 10 μM for 30 min, then LPS 24 hours. How it is done:
(§1) Rat kidney epithelial cells (ATCC #CRL-1571) were maintained in DMEM medium containing 10% fetal bovine serum, and 1% Penicillin-Streptomycin solution (Sigma-Aldrich). NRK52E cells were passaged by trypsinization when the cultures reached a confluency of 70%. For all experiments, NRK52E cells were seeded at 0.6·10^5 cells/cm^2 and allowed to adhere for 24 hours.
(§2) HUVEC and NRK52E cells were pre-incubated with SUL compounds (10 μM) for 30 min and subsequently exposed to LPS for 24 hours under standard culture conditions. Cells were lysed in triZOL reagens (Invitrogen) and total RNA isolated according to manufacturers' instruction. 1 μg total RNA per sample was reverse transcribed using the FirstAid Reverse Transcription Kit (ThermoFisher). Copy-DNA equivalents of 5 ng total RNA were amplified on a ViiA7 Real-time PCR system (ThermoFisher, Waltham, Mass.) using iTaq Universal SYBR Green Supermix (Bio-Rad, Hercules, Calif.) and primers specific for tumor necrosis factor alpha, interleukin 1 beta, interleukin-6 and beta actin as loading control. Amplification was performed for 40 cycles of 95° C. for 30 s, 60° C. for 1 min. Relative mRNA expression was calculated as 2^−(Cq^gene^−Cq^reference^) and normalized to unstimulated control cells (100% inhibition) and vehicle-treated and LPS exposed cells (0% inhibition). The following primers were used: […]

For assay [1], the system named is HUVEC. The assay is described as follows: Cell viability after hypothermia-rewarming stress (Neutral Red). The following applies: 10 μM for 1 hour, 4° C. for 24 hours followed by 37° C. for 3 hours. The class given is cell-based, Human. The protocol: (§3) Human Umbilical Cord Endothelial Cells (HUVEC, Lonza CC-2519) were maintained on 1% gelatin-coated culture flasks in RPMI1640 medium containing 20% fetal bovine serum, 2 mM Glutamine (Sigma-Aldrich), 1% Penicillin-Streptomycin solution (Sigma-Aldrich) and 50 μg/ml Bovine Pituitary Extract (Invitrogen). HUVEC were passaged by trypsinization when the cultures reach a confluency of 70%. For all experiments, HUVEC were seeded at 0.6·10^5 cells/cm^2 and allowed to adhere for 24 hours.
HUVEC were pre-treated with BN-80933, SUL-138 or SUL-150 (all 10 μM) for 1 hour in a humidified incubator at 37° C. Following pre-treatment, HUVEC were placed in a cold room (2-8° C.) for 24 hours and subsequently placed back at 37° C. for a 3 hour rewarming period. After 1 hour of rewarming, cell culture medium was replaced by prewarmed and filtered 0.4 mg/mL Neutral Red (#N463 8, Sigma-Aldrich) in culture medium. After the remaining 2 hour rewarming period, HUVEC were washed with PBS and NRU was solubilized in 100 μL resorption solution (50% ethanol, 1% ascetic acid in dH2O). The absorbance was measured at a wavelength of 550 nm on a BioTek ELx808 plate reader. The recorded OD550 nm values were normalized to control samples that were maintained at 37° C. at all times, which were assumed to be 100% viable.

For assay [2], the system named is IL-1β mRNA expression. The assay is described as follows: Inhibition of LPS-induced IL-1β mRNA expression in NRK52E. The class given is cell-based, Rat. As to conditions: 10 μM for 30 min, then LPS 24 hours. The protocol: as §1, §2
Assay [3] relates to IL-1β mRNA expression. The assay is described as follows: Endothelial inflammatory activation after endotoxin, IL-1β mRNA (Example 5). In kind it is cell-based, Human. As to conditions: HUVEC; 10 μM for 30 min. The protocol: as §3
HUVEC cells were lysed in triZOL reagens (Invitrogen) and total RNA isolated according to manufacturers' instruction. 1 μg total RNA per sample was reverse transcribed using the FirstAid Reverse Transcription Kit (ThermoFisher). Copy-DNA equivalents of 5 ng total RNA were amplified on a ViiA7 Real-time PCR system (ThermoFisher, Waltham, Mass.) using iTaq Universal SYBR Green Supermix (Bio-Rad, Hercules, Calif.) and primers specific for tumor necrosis factor alpha (TNFα; sense 5′-[…]-3′, antisense 5′-[…]-3′), interleukin 1 beta (IL-1β; sense 5′-[…]-3′, antisense 5′-[…]-3′), interleukin-6 (IL-6; sense 5′-[…]-3′, antisense 5′-[…]-3′) and beta actin (ACTB; sense 5′-[…]-3′, antisense 5′-[…]-3′) as loading control. Amplification was performed for 40 cycles of 95° C. for 30 s, 60° C. for 1 min. Relative mRNA expression was calculated according to the δδCt-method.

Assay [4] deals with HUVEC. The assay is described as follows: HUVEC cell survival after 48 hours LPS (Cyquant). In kind it is cell-based, Human. The following applies: 48 hours with LPS, SUL-138 pre-incubation. The protocol: Human Umbilical Vein Endothelial cells (HUVEC) were obtained from the RuG/UMCG Endothelial Cell Facility. Primary isolates of umbilical cords were mixed and subsequently cultured on HUVEC culture medium, consisted of RPMI 1640 (Lonza, art.nr. BE12-115F) supplemented with 20% heat-inactivated fetal calf serum (ThermoFisher Scientific, art.nr. 10082147), 2 mM 1-glutamine (Life Technologies art.nr. 25030), 5 U/ml heparin (Leo Pharmaceutical Products), 1% Penicillin/Streptomycin (Sigma-Aldrich art.nr. P4333), and 50 μg/ml EC growth factor supplement from (Sigma-Aldrich, art.nr. E2759).
Primary HUVECs were cultured in 75-cm2 tissue culture flasks (Corning, art.nr. 430720U) at 37° C. under 5% CO2/95% air. HUVECs were used for experiments up to passage 8. Experiments were performed in 6-well (Corning art.nr. 3506) or 96-well culture plates (Corning, art.nr. 3596), at 80% confluency. Cells were stimulated with LPS E. coli 0111:B4 (Sigma-Aldrich, art.nr. L2630) in different concentrations. Cells were detached with trypsin (Sigma-Aldrich, art.nr. 25300054). All compounds were dissolved in Hanks Balanced Salt Solution (Lonza, art.nr. 10-527F).
HUVECs were pre-incubated with SUL-138 in an amount of 10 microgram/ml, which was added one hour prior to LPS-stimulation. Such pre-incubation is the standard in in vitro models.

With `Cc1c(C)c2c(c(C)c1O)CC[C@@](C)(C(=O)N1CCN(CCO)CC1)O2` [SUL-138, (S)-(6-hydroxy-2,5,7,8-tetramethylchroman-2-yl)(4-(2-hydroxyethyl)piperazin-1-yl)methanone], the “inhibition of LPS-induced mRNA expression of TNFα” value with TNFα mRNA expression stood at 52.6 ± 11.6 %. Moreover, the “reduction in cell viability versus normothermic control cells” value in the assay with HUVEC [1] is recorded as about 15%. Further, the “inhibition of LPS-induced mRNA expression of IL-1β” value with IL-1β mRNA expression [2] was found to be 65.2 ± 8.9 %. The “LPS-induced mRNA expression of IL-1β” value in the assay on IL-1β mRNA expression [3] was “precluded the LPS-induced increase in IL-1β and IL-6”. For the same molecule, the “cell survival (Cyquant)” value with HUVEC [4] was “restores cell survival after 48 hours”.
